Assay [1] has as its system lymphocytic leukemia P388. As to the kind of experiment: In vivo antitumor activity against P388 leukemia in mice. The arrangement: species or system mice (female CDF1). As to conditions: for prolongation of life-span in the P388-bearing mice / times less active than the parent compound in terms of minimum effective doses (MED): P388, Q1Dx3, ip; for times less active than the parent compound in terms of minimum effective doses (MED): relative to elsamicin A. The procedure: (§1) Among the derivatives tested, in vivo antitumor activity of six derivatives showing relatively potent cytotoxicity was tested in the lymphocytic leukemia P388 and B16 melanoma systems. Female CDF1 (for P388) and male BDF1 (for B16) mice were inoculated by ip injection at 10^6 P388 cells and 0.5 ml of a 10% B16 brei per mouse, respectively (day 0). […] The percent increase of median survival time (MST) of treated animals over that of untreated control animals was determined and reported as T/C %. Compounds showing T/C % values of 125 or greater are considered to have significant antitumor activity. […] The others had no activity at the doses tested. Derivatives 4d, 4e, and 5 when tested in the B16 system, also gave 10-30 times less antitumor activity than elsamicin A in terms of MED (Table 5).

Assay [2] has as its system murine melanoma B16-F10 cells. As to the kind of experiment: cells. As to conditions: Mus musculus, B16-F10, 72 h, read-out: Cytotoxicity IC50.
Protocol: For in vitro cytotoxicity experiment, murine melanoma B16-F10 cells were grown and maintained in Eagle's minimum essential medium (Nissui), which contains kanamycin (60 μg/ml), supplemented with heat-inactivated fetal calf serum (10%) and nonessential amino acids (0.6%) at 37° C. under a humidified atmosphere in a 5% CO2 incubator. Exponentially growing B16-F10 cells were harvested, counted and suspended in the culture medium at the concentration of 2.0×10^4 cells/ml. The cell suspension (180 μl) was planted into wells of a 96-well microtiter plate and incubated for 24 hours. Test compounds (20 μl) were added to the wells and the plates were further incubated for 72 hours. The cytotoxic activity was colorimetrically determined at 540 nm after staining viable cells with neutral red solution.
A further assay has as its system B16 melanoma. As to the kind of experiment: In vivo antitumor activity against B16 melanoma in mice. The arrangement: species or system mice (male BDF1). The conditions noted are these: B16, Q4Dx3 ip; relative to elsamicin A. The procedure: as §1

≈ marks a conversion by molar mass, not a printed value. Counter-ions that a name gives are not always drawn.

`CO[C@@H]1[C@@H](N)[C@@H](O[C@H]2[C@H](Oc3cccc4c(O)c5c(=O)oc6ccc(C)c7c(=O)oc(c34)c5c67)O[C@H](C)[C@H](O)[C@]2(C)O)O[C@H](C)[C@@H]1O` [Compound 1, Elsamicin A]: in assay [1] (P388, 20 mg/kg/day, Q1Dx3, ip), the “T/C % of MST” value was “Tox”.
A word on the IC50: it is the concentration at which inhibition is half-maximal. As for `CO[C@H]1[C@@H](O)[C@@H](C)O[C@H](O[C@H]2[C@H](Oc3cccc4c(O)c5c(=O)oc6ccc(C)c7c(=O)oc(c34)c5c67)O[C@H](C)[C@H](O)[C@]2(C)O)[C@@H]1NC(C)=O` [Compound 3a, 2"-N-Acetylelsamicin A], the IC50 in assay [2] was determined as 55 µg/mL (≈ 79.1 µM).
On to `CO[C@H]1[C@@H](O)[C@@H](C)O[C@H](O[C@H]2[C@H](Oc3cccc4c(O)c5c(=O)oc6ccc(C)c7c(=O)oc(c34)c5c67)O[C@H](C)[C@H](O)[C@]2(C)O)[C@@H]1NC(=O)CCC(=O)O` [Compound 3b, 2"-N-(3-Carboxypropionyl)elsamicin A], for which, in assay [2], the IC50 was determined as 56 µg/mL (≈ 74.3 µM).
On the same count and under the same terms, with `CO[C@H]1[C@@H](O)[C@@H](C)O[C@H](O[C@H]2[C@H](Oc3cccc4c(O)c5c(=O)oc6ccc(C)c7c(=O)oc(c34)c5c67)O[C@H](C)[C@H](O)[C@]2(C)O)[C@@H]1NC(=O)CN` [Compound 3d, 2"-N-Glycylelsamicin A] the figure was 4.1 µg/mL (≈ 5.77 µM).
Turning to `CO[C@H]1[C@@H](O)[C@@H](C)O[C@H](O[C@H]2[C@H](Oc3cccc4c(O)c5c(=O)oc6ccc(C)c7c(=O)oc(c34)c5c67)O[C@H](C)[C@H](O)[C@]2(C)O)[C@@H]1NC(C)C` [Compound 4a, 2"-N-Isopropylelsamicin A], in assay [1], the “prolongation of life-span in the P388-bearing mice” value (from here on “prolongation of life-span”) is listed as “quite limited prolongation of life-span” and the “times less active than the parent compound in terms of minimum effective doses (MED)” value is 10-30 times. In addition, in assay [2], the IC50 was 1.5 µg/mL (≈ 2.16 µM).
For the compound `CN[C@H]1[C@@H](O[C@H]2[C@H](Oc3cccc4c(O)c5c(=O)oc6ccc(C)c7c(=O)oc(c34)c5c67)O[C@H](C)[C@H](O)[C@]2(C)O)O[C@H](C)[C@H](O)[C@@H]1OC` [Compound 4d, 2"-N-Methylelsamicin A], in assay [1], the “prolongation of life-span” value is “quite limited prolongation of life-span” and the “times less active than the parent compound in terms of minimum effective doses (MED)” value was 10-30 times. Besides, the “times less antitumor activity than elsamicin A in terms of MED” value in the assay with B16 melanoma is reported as 10-30 times. Moreover, in assay [2], the IC50 stood at 1.7 µg/mL (≈ 2.55 µM).
Turning to `CO[C@H]1[C@@H](O)[C@@H](C)O[C@H](O[C@H]2[C@H](Oc3cccc4c(O)c5c(=O)oc6ccc(C)c7c(=O)oc(c34)c5c67)O[C@H](C)[C@H](O)[C@]2(C)O)[C@@H]1N(C)C` [Compound 4e, 2"-N,N-Dimethylelsamicin A], in assay [1], the “prolongation of life-span” value was “quite limited prolongation of life-span” and the “times less active than the parent compound in terms of minimum effective doses (MED)” value is on record as 10-30 times. The “times less antitumor activity than elsamicin A in terms of MED” value with B16 melanoma is on record as 10-30 times. Besides, in assay [2], the IC50 is 0.36 µg/mL (≈ 0.528 µM).
As for `CO[C@H]1[C@@H](O)[C@@H](C)O[C@H](O[C@H]2[C@H](Oc3cccc4c(O)c5c(=O)oc6ccc(C)c7c(=O)oc(c34)c5c67)O[C@H](C)[C@H](O)[C@]2(C)O)[C@@H]1N1CCOCC1` [Compound 4f, 2"-Deamino-2"-morpholinoelsamicin A], the IC50 in assay [2] came out at 11 µg/mL (≈ 15.2 µM).
For the compound `CO[C@H]1[C@@H](O)[C@@H](C)O[C@H](O[C@H]2[C@H](Oc3cccc4c(O)c5c(=O)oc6ccc(C)c7c(=O)oc(c34)c5c67)O[C@H](C)[C@H](O)[C@]2(C)O)[C@@H]1NC=N` [Compound 5, 2"-N-Formimidoylelsamicin A hydrochloride], in assay [1], the “prolongation of life-span” value is recorded as “quite limited prolongation of life-span” and the “times less active than the parent compound in terms of minimum effective doses (MED)” value is listed as 10-30 times. Besides, in the assay with B16 melanoma, the “times less antitumor activity than elsamicin A in terms of MED” value is 10-30 times. Further, in assay [2], the IC50 is 0.47 µg/mL.

The values above are taken from patent US5237055A, “Chemical modification of 2"-amino group in elsamicin A” (Bristol-Myers Squibb Company, priority 1992, dated 1993).
